# Data taken from PubChem BioAssay AID1159565 (GlaxoSmithKline (GSK), 2015).
# Active and inactive are the calls of the source. How the calls were made is not given here.
# Test system: T. cruzi-infected H9C2 cardiomyocytes, high-content imaging
# Test: intracellular T. cruzi amastigote inhibition, imaging, H9C2 host cardiomyocytes, host toxicity (AID 1159565);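 further: infected cells incubated 72 h after plating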
# [1] = measured here: H9C2 host cell toxicity
# [2] = measured here: amastigotes per cell
Compound,IC50,IC50 [1],IC50 [2]
CS(=O)(=O)c1ccc(CC(=O)Nc2nc(-c3ccc(Cl)s3)cs2)cc1,320 nM,16000 nM,400 nM
O=C(CSc1ccc(F)cc1)N[C@@H](Cc1cnc[nH]1)C(=O)NCCc1ccccc1,500 nM,> 50000 nM,500 nM
O=C(Cn1cnc2c(-c3ccccc3)csc2c1=O)N1CCCCC1,4000 nM,> 50000 nM,3200 nM
CCN(CC)S(=O)(=O)c1ccc(C)c(NC(=O)c2cc(Cl)c3c(c2)OCO3)c1,> 50000 nM (inactive),25000 nM,> 50000 nM
O=C(CN(Cc1ccccn1)Cc1ccccn1)NCc1csc(-c2cccs2)n1,6300 nM,> 50000 nM,2500 nM
CCOc1ccccc1C(=O)Nc1nnc(-c2ccc3c(c2)OCO3)s1,79 nM,> 50000 nM,63 nM
COc1ccc(OC)c2c(=O)c(Cc3ccccc3)c(C)[nH]c12,500 nM,> 50000 nM,130 nM
CCCCn1c(=O)c2c(N)onc2n(CCCC)c1=O,32000 nM,25000 nM,25000 nM
O=C(CC1(O)C(=O)N(Cc2cccs2)c2ccc(Br)cc21)c1cccnc1 (stereo not given),40000 nM,4000 nM,25000 nM
COc1ccc([N+](=O)[O-])cc1NC(=O)Nc1cccc(Cl)c1,10000 nM,> 50000 nM,400 nM
c1ccc(CCNCc2cncc3nc(-c4cnccn4)n(C4CCCCC4)c23)cc1,130 nM,> 50000 nM,130 nM
O=C(NC1CCN(C2Cc3ccc(NS(=O)(=O)c4cc(F)cc(F)c4)cc3C2)CC1)C1CC1 (stereo not given),> 50000 nM (inactive),> 50000 nM,> 50000 nM
O=c1ccc2ccc(F)c3c2n1C[C@H]3CN1CCC(NCc2cc3ccccc3o2)CC1,200 nM,32000 nM,130 nM
COc1cc(-c2noc(CC#N)n2)ccc1OC(F)F,40000 nM,32000 nM,25000 nM
O=C(Nc1ccc(C(F)(F)F)cc1)Nc1cccc([N+](=O)[O-])c1,1300 nM,5000 nM,790 nM
Cc1cc(C#N)c([N+](=O)[O-])cc1Br,320 nM,50000 nM,50 nM
CC(C)c1nn(-c2nc(N)nc(-c3ccccn3)n2)c(N)c1C1CCCCC1,1300 nM,3200 nM,1300 nM
CCCCNc1nccc(-c2c(-c3ccc(F)cc3)nn3c(N4CCOCC4)cccc23)n1,3200 nM,> 50000 nM,1000 nM
CC(C)c1cc(C(=O)N2CCCC(c3cc4ncccc4[nH]3)C2)on1 (stereo not given),3200 nM,> 50000 nM,1000 nM
COc1cccc2sc(CN(C)C(=O)C3CNCCN3c3ccc(F)cc3)c(C)c12 (stereo not given),200 nM,7900 nM,160 nM
COc1ccc(-c2cc(C)no2)cc1S(=O)(=O)Nc1ccc(F)c(Cl)c1,3200 nM,50000 nM,4000 nM
OC1CCC(Nc2nccc(-c3sc(C4CCOCC4)nc3-c3ccc(F)c(F)c3)n2)CC1 (stereo not given),320 nM,32000 nM,200 nM
O=C(c1cnn(-c2ccccc2)n1)N1CCCC(n2ccnc2)C1 (stereo not given),79 nM,> 50000 nM,63 nM
CN(Cc1nc2ccc(C(=O)NCC3CCCCC3)cc2[nH]1)C1CCCc2cccnc21 (stereo not given),630 nM,5000 nM,320 nM
N#Cc1cc(-c2ccnc(Nc3cccc(CN4CCOCC4)c3)n2)ccc1NCCN,32000 nM,7900 nM,16000 nM

Compound,IC50,IC50 [1],IC50 [2]
CN(C)Cc1ccc(-c2ccc(S(=O)(=O)NCC3CCCO3)c(F)c2)cc1 (stereo not given),5000 nM,63000 nM,2000 nM
O=[N+]([O-])c1ccc(C2=CC(c3ccccc3)=NCCN2)cc1,1000 nM,32000 nM,250 nM
CNc1nc(C)nc(N2CCc3cc(C(=O)NCc4ccc(-c5nccn5C)cc4Cl)ccc32)n1,13000 nM,50000 nM,5000 nM
CC(CNS(=O)(=O)c1ccc(OC(F)F)cc1)c1ccc(NC(=O)c2ccncc2)cc1 (stereo not given),100 nM,> 50000 nM,79 nM
CN1CCC(N(C)c2nccc(N3CCN(C(=O)c4cccc(-c5cccnc5)c4)CC3)n2)CC1,1300 nM,7900 nM,1000 nM
CC1CN(S(=O)(=O)c2ccc(NC(=O)c3cc(C4CC4)nc4c3cnn4C(C)C)cc2)CC(C)O1 (stereo not given),790 nM,> 50000 nM,630 nM
O=C(NCc1ccc(-n2cccc2)cc1)c1nc(Cn2ccc([N+](=O)[O-])n2)no1,2500 nM,> 50000 nM,1300 nM
Cc1cc(N(C)C)nc2ccc(Cc3cnc(N)nc3N)cc12,6300 nM,> 50000 nM,3200 nM
Nc1nccc(-c2csc(Nc3ccc(Cl)cc3)n2)n1,> 50000 nM (inactive),2000 nM,> 50000 nM
CC(C)(C)Nc1nc(-c2ccccn2)nc2ccccc12,2000 nM,320 nM,1300 nM
Cc1cc(C)n(-c2nc(NC(C)C)nc(NC(C)(C)C)n2)n1,1600 nM,200 nM,500 nM
CN(Cc1ccc(F)cc1)c1ccc(OCC(=O)N2CCCCC2c2cccnc2)nn1 (stereo not given),400 nM,> 50000 nM,400 nM
COc1cc2c(cc1OC)[C@H]1[C@@H](C)c3ccc(OC)c(OC)c3CN1CC2,> 50000 nM (inactive),> 50000 nM,20000 nM
COc1ccc(CN(C)Cc2ccncc2)cc1-c1ccc(S(=O)(=O)NC2CCC2)s1,630 nM,10000 nM,500 nM
Cc1cc2cncn2c(C2CCCCN2C(=O)c2cccs2)n1 (stereo not given),63 nM,> 50000 nM,63 nM
N#CN1CC[C@@H](NC(=O)Nc2ccccc2Oc2ccccc2)C1,4000 nM,20000 nM,5000 nM
COc1ccc2ncc(Cl)c(CCN3CC[C@H](NCc4cc5c(cn4)OCS5)[C@@H](O)C3)c2n1,160 nM,10000 nM,100 nM
CCn1nccc1CN(C)C(=O)C=Cc1ccc(Cl)cc1,320 nM,> 50000 nM,320 nM
COCCn1c(-c2ccccc2)cnc1NCc1ccccc1OC,16000 nM,> 50000 nM,6300 nM
CC(=O)NCCNc1cc(-c2ccnc(Nc3cccc(Cl)c3)n2)ccn1,1600 nM,400 nM,160 nM
O=[N+]([O-])c1cccc(Nc2cncc(-c3ccccc3CO)c2)c1,400 nM,> 50000 nM,250 nM
CCC(=O)N1N=C(c2ccc3c(c2)CCCC3)Sc2c1ncn2C(=O)CC,20000 nM,> 50000 nM,13000 nM
COc1ccc(Nc2nccc(N(C)c3n[nH]c4c(F)cccc34)n2)cc1S(C)(=O)=O,4000 nM,7900 nM,2000 nM
O=c1[nH]cnc2c([C@@H]3O[C@H](CO)[C@@H](O)[C@H]3O)[nH]nc12,500 nM,> 50000 nM,320 nM
Cc1cc(C)nc(N2CCC(N(Cc3cccnc3)C(=O)c3cccc(C#N)c3)CC2)n1,320 nM,> 50000 nM,400 nM
